The text below walks through data of PMC4961696, “An Enantiomer of an Oral Small-Molecule TSH Receptor Agonist Exhibits Improved Pharmacologic Properties” (Frontiers in Endocrinology, 2016).

Each structure is given as a SMILES string.

Test [1] concerns the target T1, TSH receptor (TSHR) (Homo sapiens, UniProt P16473). In words: cAMP production in HEK293 cells stably expressing TSHR (agonist dose-response); inactive in HEK-LHR and HEK-FSHR cells. Type of test: cell-based. (Changes in cAMP serve as a functional read-out for many G protein-coupled receptors.)
Test [2] has as its target T1, TSH receptor (TSHR). The test can be described thus: cAMP production in HEK293 cells stably expressing TSHR (agonist dose-response). It counts as cell-based.

T1 sequence (P16473 21-764): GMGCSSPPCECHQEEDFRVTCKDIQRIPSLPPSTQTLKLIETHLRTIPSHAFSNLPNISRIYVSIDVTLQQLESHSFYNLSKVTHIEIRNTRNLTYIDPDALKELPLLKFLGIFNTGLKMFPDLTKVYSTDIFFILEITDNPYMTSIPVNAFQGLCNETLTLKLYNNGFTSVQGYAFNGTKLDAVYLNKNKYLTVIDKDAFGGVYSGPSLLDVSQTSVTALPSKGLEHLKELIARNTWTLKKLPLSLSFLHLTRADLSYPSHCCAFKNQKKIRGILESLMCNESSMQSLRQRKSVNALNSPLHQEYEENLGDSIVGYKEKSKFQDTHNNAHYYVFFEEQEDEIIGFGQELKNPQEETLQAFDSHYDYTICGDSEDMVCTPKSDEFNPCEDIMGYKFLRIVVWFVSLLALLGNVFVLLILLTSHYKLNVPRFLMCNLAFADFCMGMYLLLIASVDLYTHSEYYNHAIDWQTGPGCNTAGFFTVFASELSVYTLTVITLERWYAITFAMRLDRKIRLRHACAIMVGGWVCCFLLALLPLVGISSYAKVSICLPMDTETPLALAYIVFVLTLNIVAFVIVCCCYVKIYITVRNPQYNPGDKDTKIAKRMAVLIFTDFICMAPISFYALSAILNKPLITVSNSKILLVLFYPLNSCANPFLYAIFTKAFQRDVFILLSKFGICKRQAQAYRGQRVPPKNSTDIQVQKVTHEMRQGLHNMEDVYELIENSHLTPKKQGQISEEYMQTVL

At TSH receptor (TSHR) [1], `COc1ccc([C@@H]2Nc3cccc(O)c3C(=O)N2Cc2ccccc2)cc1COc1ccc(NC(C)=O)cc1` [E1] showed a concentration for a half-maximal effect (EC50) of 217 nM. On the same count and under the same terms, the value for `COc1ccc([C@H]2Nc3cccc(O)c3C(=O)N2Cc2ccccc2)cc1COc1ccc(NC(C)=O)cc1` [E2] was 18 nM. Take `COc1ccc(C2Nc3cccc(O)c3C(=O)N2Cc2ccccc2)cc1COc1ccc(NC(C)=O)cc1` (racemic) [C2]: the concentration for a half-maximal effect (EC50) on TSH receptor (TSHR) [2] was determined as 46 nM.

Broadly, the EC50 is the concentration that produces a half-maximal response. Read a low EC50 as an effect from little substance.
